Source: patent US7713994B2 (Wyeth LLC, priority 2005, dated 2010)
Like-named read-outs stand apart in the source and are kept apart here.

Tests used:
cyclin B/CDK1 enzyme = biological target: T1, cyclin B/CDK1 enzyme (Homo sapiens, UniProt P06493); experiment: CDK1 ELISA kinase assay (phospho-Rb ser 795 detection); assay type: biochemical
T1 construct: purchased New England BioLabs; host or cells: Sf9 insect cells, recombinant baculovirus
Procedure: (§1) • 1. High-binding ELISA microtiter plates (Costar) were coated with 40 μl of the kinase substrate (GST fusion of C-terminal fragment of the retinoblastoma susceptibility gene product) diluted to 10 μg/ml in tris-buffered saline (TBS), overnight at 4° C. • 2. Non-specific binding sites were blocked for 1 hour at 4° C. with Superblock in TBS (Pierce), and the plates rinsed with water. • 3. For the screen, 1.5 μl of test compound (200 μg/ml stock in 20% DMSO/20 mM HEPES, pH 7.5) was added to each well. Final dose of the test compound in the assay was 10 ug/ml. […] The kinase reaction (30 μl) was dispensed into each well. Reactions contained 200 μM ATP, 0.5 mg/ml bovine serum albumin (BSA; Sigma), and 0.5 μl partially purified cyclin D1/cdk 4 enzyme*. The enzyme complex is expressed in insect cells (Sf9) infected with recombinant baculovirus and partially purified using ammonium sulfate fractionation. Reaction volumes were adjusted to 30 μl with kinase assay buffer (50 mM HEPES, pH 7.5, 10 mM MgCl2, 5% glycerol, 10 mM 2-mercaptoethanol). • *: For CDK2 assay, 1.0 μl cyclin E/CDK2 enzyme (diluted 1:1000 in kinase assay buffer) was used. The enzyme is isolated from insect cells (Sf9) infected with recombinant baculovirus and partially purified using ammonium sulfate fractionation. For CDK1 assay, 0.08 μl cyclin B/CDK1 enzyme [New England BioLabs; the enzyme is isolated from insect cells (Sf9) infected with recombinant baculovirus carrying human cdc 2 and human cyclin B] was used.
(§2) […] • 5. Plates were incubated at 30° C. for 1 hour. • 6. The reaction mixture was removed by aspiration and replaced with 250 μl TBS containing 0.1% Tween-20 and 5% nonfat dry milk (blocking buffer). The plates were incubated at 4° C. for 1 hour. • 7. The blocking buffer was removed and replaced with 50 μl of the primary antibody [anti-phospho-Rb ser 795 (New England BioLabs) diluted 1:1000 in blocking buffer]. Incubation was at 4° C. for 16-20 hours. • 8. The wells were rinsed 3 times with 250 μl of TBS containing 0.1% Tween-20 followed by the addition of 50 μl of secondary antibody [anti-rabbit IgG conjugated to horseradish peroxidase (Amersham Life Science) diluted 1:1000 in blocking buffer]. • 9. After a 1 hour incubation at room temperature, the wells were rinsed 3 times with 250 μl of TBS/0.1% Tween 20. • 10. TMB (3,3′,5,5′-tetramethylbenzidine dihydrochloride) substrate solution (100 μl; Pierce) was added to each well and the color development reaction allowed to proceed 5-10 minutes at room temperature with shaking. The reaction was stopped by the addition of 2N sulfuric acid (100 μl) and the absorbance values read at 450 nm in a microplate reader (Molecular Devices). Analysis of Results: • 1. The percentage of the absorbance value in wells containing the test compound relative to control wells (no test agent) was determined. • 2. IC50 values of selected compounds were determined from inhibition curves, after subtracting background values (no substrate).

cyclin D1/cdk 4 enzyme = biological target: T2, cyclin D1/cdk 4 enzyme (Homo sapiens, UniProt P11802); experiment: CDK4 ELISA kinase assay (phospho-Rb ser 795 detection); assay type: biochemical
T2 construct: made in house; host or cells: Sf9 insect cells, recombinant baculovirus
T2 sequence (P11802 whole entry, species assumed): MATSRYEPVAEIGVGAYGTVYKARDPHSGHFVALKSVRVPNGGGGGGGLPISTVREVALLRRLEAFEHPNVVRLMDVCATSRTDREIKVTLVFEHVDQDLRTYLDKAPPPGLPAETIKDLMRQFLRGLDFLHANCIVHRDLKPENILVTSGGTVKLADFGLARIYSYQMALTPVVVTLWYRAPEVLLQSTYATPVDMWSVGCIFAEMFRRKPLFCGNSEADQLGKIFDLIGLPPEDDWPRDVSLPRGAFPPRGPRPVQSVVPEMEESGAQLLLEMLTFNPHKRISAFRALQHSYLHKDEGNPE
T2 sequence (P24385 whole entry partner, species assumed): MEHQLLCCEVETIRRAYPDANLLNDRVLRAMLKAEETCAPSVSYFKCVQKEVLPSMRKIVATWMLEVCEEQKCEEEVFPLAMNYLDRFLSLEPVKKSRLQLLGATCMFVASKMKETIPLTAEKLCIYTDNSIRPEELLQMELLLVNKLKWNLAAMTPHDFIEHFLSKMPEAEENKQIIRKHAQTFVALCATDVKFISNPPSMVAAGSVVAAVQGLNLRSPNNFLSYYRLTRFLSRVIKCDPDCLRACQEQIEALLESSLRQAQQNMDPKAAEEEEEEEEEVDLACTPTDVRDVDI
How it was run: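 Wells were coated overnight with GST-Rb C-terminal fragment, then blocked. Compound (10 ug/ml final) and cyclin/CDK enzyme from baculovirus-infected Sf9 cells with 200 μM ATP reacted 1 h at 30° C. Ser795 phosphorylation was detected by ELISA at 450 nm.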

cyclin E/CDK2 enzyme = biological target: T3, cyclin E/CDK2 enzyme (Homo sapiens, UniProt P24941); experiment: CDK2 ELISA kinase assay (phospho-Rb ser 795 detection); assay type: biochemical
T3 construct: made in house; host or cells: Sf9 insect cells, recombinant baculovirus
Procedure: as §1, §2

MCF-7 = experiment: Cytotoxicity assay (SRB), MCF-7; assay type: cell-based; conditions: Homo sapiens, MCF7, 72 h, MCF-7 cells, SRB, read-out: In Vitro Cellular Activity IC50 MCF-7
How it was run: (§3)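 Cells were seeded overnight in RPMI 1640 with 5% FBS at 37 °C, 7% CO2 (12000/well BT474, 4000 HCT-116, 6000 LoVo, 6000 MCF-7), then exposed to compound dilutions for 3 days (6 days for BT474). Survival versus untreated controls was measured by TCA fixation and SRB staining at 540 nm.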

LoVo = experiment: Cytotoxicity assay (SRB), LoVo; assay type: cell-based; conditions: Homo sapiens, LoVo, 72 h, LoVo cells, SRB, read-out: In Vitro Cellular Activity IC50 LOVO
How it was run: as §3

BT474 = experiment: Cytotoxicity assay (SRB), BT474; assay type: cell-based
How it was run: as §3

HCT-116 = experiment: Cytotoxicity assay (SRB), HCT-116; assay type: cell-based; conditions: Homo sapiens, HCT-116, 72 h, HCT116 cells, SRB, read-out: In Vitro Cellular Activity IC50 HCT116
How it was run: as §3

[1] = In Vitro Enzyme Assays, read-out: CDK1 IC50
[2] = In Vitro Enzyme Assays, 200 μM ATP, read-out: CDK4 IC50
[3] = In Vitro Enzyme Assays, read-out: CDK2 IC50
[4] = Homo sapiens, BT-474, 144 h, BT474 cells, 6 days, SRB; read-out: In Vitro Cellular Activity IC50 BT474
[5] = In Vitro Enzyme Assay, cyclin E/CDK2, read-out: CDK2 IC50
[6] = In Vitro Enzyme Assay, cyclin D1/cdk 4, read-out: CDK4 IC50
[7] = In Vitro Enzyme Assay, cyclin B/CDK1, read-out: CDK1 IC50

T1 sequence (P06493 whole entry): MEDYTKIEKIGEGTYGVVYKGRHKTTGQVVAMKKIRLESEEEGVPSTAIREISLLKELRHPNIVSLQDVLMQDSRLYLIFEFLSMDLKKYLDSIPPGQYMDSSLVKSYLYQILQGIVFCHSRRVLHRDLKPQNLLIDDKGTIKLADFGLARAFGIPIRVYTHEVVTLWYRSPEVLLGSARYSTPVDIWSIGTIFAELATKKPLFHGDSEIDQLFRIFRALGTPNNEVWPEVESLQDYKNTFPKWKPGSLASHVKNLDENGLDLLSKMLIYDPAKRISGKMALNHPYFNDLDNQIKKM
T1 sequence (P14635 whole entry partner): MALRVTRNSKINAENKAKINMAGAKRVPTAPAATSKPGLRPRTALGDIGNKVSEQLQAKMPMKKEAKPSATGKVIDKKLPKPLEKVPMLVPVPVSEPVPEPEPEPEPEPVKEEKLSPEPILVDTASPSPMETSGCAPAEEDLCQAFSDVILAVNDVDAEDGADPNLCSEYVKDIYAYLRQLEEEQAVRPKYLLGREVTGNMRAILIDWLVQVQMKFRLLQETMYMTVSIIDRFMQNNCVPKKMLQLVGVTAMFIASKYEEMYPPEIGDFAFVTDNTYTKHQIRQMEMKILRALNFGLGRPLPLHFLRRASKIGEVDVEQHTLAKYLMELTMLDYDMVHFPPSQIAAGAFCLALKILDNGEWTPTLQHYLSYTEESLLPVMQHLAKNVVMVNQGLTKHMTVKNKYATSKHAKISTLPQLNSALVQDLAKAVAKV

Row | IC50 (cyclin D1/cdk 4 enzyme; [2]) | IC50 (cyclin E/CDK2 enzyme; [3]) | IC50 (cyclin E/CDK2 enzyme; [5]) | IC50 (cyclin D1/cdk 4 enzyme; [6]) | SMILES | IC50 (MCF-7; 3 days) | IC50 (LoVo; 3 days) | IC50 (BT474; [4]) | IC50 (HCT-116; 3 days) | further results
1 | – | – | 21.3 µM | 14.7 µM | N#CCc1ccc(NC=C2C(=O)NC(=O)c3ccccc32)cc1 [Example 555, {4-[(1,3-Dioxo-2,3-dihydro-1H-isoquinolin-4-ylidenemethyl)-amino]-phenyl}-acetonitrile] | – | – | – | – | IC50 (cyclin B/CDK1 enzyme; [7]): 45 µM
2 | – | – | 15.1 µM | 8.2 µM | O=C1NC(=O)c2ccccc2C1=CNc1ccc(O)c(C(=O)O)c1 [Example 563, 5-[(1,3-Dioxo-2,3-dihydro-1H-isoquinolin-4-ylidenemethyl)-amino]-2-hydroxy-benzoic acid] | – | – | – | – | IC50 (cyclin B/CDK1 enzyme; [7]): 18.5 µM
3 | – | – | 13.8 µM | 12.8 µM | O=C1NC(=O)c2ccccc2C1=CNCC(O)c1ccc(O)c(O)c1 (stereo not shown) [Example 564, 4-{[2-(3,4-Dihydroxy-phenyl)-2-hydroxy-ethylamino]-methylene}-4H-isoquinoline-1,3-dione] | – | – | – | – | IC50 (cyclin B/CDK1 enzyme; [7]): 16.9 µM
4 | – | – | 23.1 µM | 0.29 µM | N#CCc1ccc(C=Cc2ccc3c(c2)C(=CNCc2ccc(O)c(O)c2)C(=O)NC3=O)cc1 [Example 805, [4-(2-{4-[(3,4-Dihydroxy-benzylamino)-methylene]-1,3-dioxo-1,2,3,4-tetrahydro-isoquinolin-6-yl}-vinyl)-phenyl]-acetonitrile] | 33.9 µM | 36.3 µM | 21.9 µM | 13.8 µM | –
5 | – | – | 12.9 µM | 0.11 µM | COc1ccc(CNC=C2C(=O)NC(=O)c3ccc(C=CCN4CC(=O)NC4=O)cc32)cc1O [Example 826, 6-[3-(2,4-Dioxo-imidazolidin-1-yl)-propenyl]-4-[(3-hydroxy-4-methoxy-benzylamino)-methylene]-4H-isoquinoline-1,3-dione] | > 50 µM | > 50 µM | > 50 µM | 36.9 µM | –
6 | – | – | – | 0.29 µM | COc1ccc(CNC=C2C(=O)NC(=O)c3ccc(-c4ccc5ccccc5c4)cc32)cc1O [Example 834, 4-[(3-Hydroxy-4-methoxy-benzylamino)-methylene]-6-naphthalen-2-yl-4H-isoquinoline-1,3-dione] | 18.6 µM | 23.1 µM | 13.2 µM | 29.6 µM | IC50 (cyclin B/CDK1 enzyme; [7]): > 50 µM

More lines, now with the values behind:

Row | SMILES | IC50 (cyclin D1/cdk 4 enzyme; [2]) | IC50 (cyclin E/CDK2 enzyme; [3]) | IC50 (cyclin E/CDK2 enzyme; [5]) | IC50 (cyclin D1/cdk 4 enzyme; [6]) | IC50 (MCF-7; 3 days) | IC50 (LoVo; 3 days) | IC50 (BT474; [4]) | IC50 (HCT-116; 3 days) | further results
7 | O=C1NC(=O)c2ccc(Br)cc2/C1=C/NCc1ccc(O)c(O)c1 [Example 40, (4Z)-6-Bromo-4-{[(3,4-dihydroxybenzyl)amino]methylene}isoquinoline-1,3(2H,4H)-dione] | 0.04 µM | > 50 µM | – | – | – | – | – | – | IC50 (cyclin B/CDK1 enzyme; [1]): > 50 µM
8 | COc1ccc(CN/C=C2\C(=O)NC(=O)c3ccc(Cl)cc32)cc1O [Example 67, (4Z)-6-Chloro-4-{[(3-hydroxy-4-methoxybenzyl)amino]methylene}isoquinoline-1,3(2H,4H)-dione] | 0.23 µM | > 50 µM | – | – | – | – | – | – | IC50 (cyclin B/CDK1 enzyme; [1]): > 50 µM
9 | CN1CCN(c2ccc(N/C=C3\C(=O)NC(=O)c4ccc(-c5ccc(C=O)o5)cc43)cc2)CC1 [Example 124, 5-[(4Z)-4-({[4-(4-Methylpiperazin-1-yl)phenyl]amino}methylene)-1,3-dioxo-1,2,3,4-tetrahydroisoquinolin-6-yl]-2-furaldehyde] | 0.36 µM | > 50 µM | – | – | – | – | – | – | IC50 (MCF-7; three days): 7.9 µM; IC50 (LoVo; three days): 5 µM; IC50 (BT474; Homo sapiens, BT-474, 144 h, BT474 cells, SRB, 6 days; read-out: In Vitro Cellular Activity IC50 BT474): 9.1 µM; IC50 (HCT-116; three days): 2.6 µM
10 | Nc1cc(CN/C=C2\C(=O)NC(=O)c3ccc(Br)cc32)cc(O)c1O [Example 204, (4Z)-4-{[(3-Amino-4,5-dihydroxybenzyl)amino]methylene}-6-bromoisoquinoline-1,3(2H,4H)-dione] | 0.22 µM | 7 µM | – | – | – | – | – | – | IC50 (cyclin B/CDK1 enzyme; [1]): > 50 µM
11 | O=C1NC(=O)c2ccc(Br)cc2C1=CNc1ccc(-c2cccnc2)cc1 [Example 349, 6-Bromo-4-[(4-pyridin-3-yl-phenylamino)-methylene]-4H-isoquinoline-1,3-dione] | 37.1 µM | 36.3 µM | – | – | – | – | – | – | IC50 (cyclin B/CDK1 enzyme; [1]): > 50 µM
12 | CCCOc1ccc(CN/C=C2\C(=O)NC(=O)c3ccc(Br)cc32)cc1C(=O)O [Example 352, 5-({[(Z)-(6-Bromo-1,3-dioxo-2,3-dihydroisoquinolin-4(1H)-ylidene)methyl]amino}methyl)-2-propoxybenzoic acid] | 1.9 µM | 12 µM | – | – | – | – | – | – | IC50 (cyclin B/CDK1 enzyme; [1]): 22.6 µM
13 | CN(C)CCNC(=O)C1CCN(c2ccc(N/C=C3\C(=O)NC(=O)c4ccc(I)cc43)cc2)CC1 [Example 433, N-[2-(Dimethylamino)ethyl]-1-(4-{[(Z)-(6-iodo-1,3-dioxo-2,3-dihydroisoquinolin-4(1H)-ylidene)methyl]amino}phenyl)piperidine-4-carboxamide] | 1.2 µM | > 50 µM | – | – | 3.1 µM | 2.8 µM | 4.5 µM | 2 µM | –
14 | O=C1NC(=O)c2ccc(I)cc2/C1=C/NCc1ccc(-c2ccco2)c(O)c1 [Example 505, 4-[(4-Furan-2-yl-3-hydroxy-benzylamino)-methylene]-6-iodo-4H-isoquinoline-1,3-dione] | – | – | 8.4 µM | – | 0.7 µM | 0.27 µM | 0.26 µM | 0.38 µM | –
15 | O=C1NC(=O)c2ccc(I)cc2/C1=C/NCc1ccc(-c2cccnc2)c(O)c1 [Example 515, 4-[(3-Hydroxy-4-pyridin-3-yl-benzylamino)-methylene]-6-iodo-4H-isoquinoline-1,3-dione] | – | – | 3.6 µM | – | 1.1 µM | 0.38 µM | 0.34 µM | 0.44 µM | –
16 | O=C1NC(=O)c2ccc(I)cc2/C1=C/NCc1cc(O)c(-c2ccoc2)cc1F [Example 520, 4-[(2-Fluoro-4-furan-3-yl-5-hydroxy-benzylamino)-methylene]-6-iodo-4H-isoquinoline-1,3-dione] | – | – | 12.1 µM | 0.01 µM | 2.2 µM | 0.9 µM | 0.66 µM | 1.2 µM | –
17 | N=C(N)c1ccc(NC=C2C(=O)NC(=O)c3ccccc32)cc1 [Example 547, 4-[(1,3-Dioxo-2,3-dihydro-1H-isoquinolin-4-ylidenemethyl)-amino]-benzamidine] | – | – | 6.6 µM | 13.2 µM | – | – | – | – | IC50 (cyclin B/CDK1 enzyme; [7]): > 50 µM
